Values of other authors as cited in patent publication US7026301B2, “Method of orally treating inflammatory skin conditions with prodrugs of 5-fluorouracil” (New York University, priority 2002, dated 2006).

What was measured:
[1] = treated patients; for patients in whom hand-foot syndrome occurred: any grade
[2] = biological target: T1, dihydropyrimidine dehydrogenase (DPD) (Homo sapiens, UniProt Q12882)
T1 construct: host or cells: endogenous enzyme of patients (in vivo)
T1 sequence (Q12882 4-1025): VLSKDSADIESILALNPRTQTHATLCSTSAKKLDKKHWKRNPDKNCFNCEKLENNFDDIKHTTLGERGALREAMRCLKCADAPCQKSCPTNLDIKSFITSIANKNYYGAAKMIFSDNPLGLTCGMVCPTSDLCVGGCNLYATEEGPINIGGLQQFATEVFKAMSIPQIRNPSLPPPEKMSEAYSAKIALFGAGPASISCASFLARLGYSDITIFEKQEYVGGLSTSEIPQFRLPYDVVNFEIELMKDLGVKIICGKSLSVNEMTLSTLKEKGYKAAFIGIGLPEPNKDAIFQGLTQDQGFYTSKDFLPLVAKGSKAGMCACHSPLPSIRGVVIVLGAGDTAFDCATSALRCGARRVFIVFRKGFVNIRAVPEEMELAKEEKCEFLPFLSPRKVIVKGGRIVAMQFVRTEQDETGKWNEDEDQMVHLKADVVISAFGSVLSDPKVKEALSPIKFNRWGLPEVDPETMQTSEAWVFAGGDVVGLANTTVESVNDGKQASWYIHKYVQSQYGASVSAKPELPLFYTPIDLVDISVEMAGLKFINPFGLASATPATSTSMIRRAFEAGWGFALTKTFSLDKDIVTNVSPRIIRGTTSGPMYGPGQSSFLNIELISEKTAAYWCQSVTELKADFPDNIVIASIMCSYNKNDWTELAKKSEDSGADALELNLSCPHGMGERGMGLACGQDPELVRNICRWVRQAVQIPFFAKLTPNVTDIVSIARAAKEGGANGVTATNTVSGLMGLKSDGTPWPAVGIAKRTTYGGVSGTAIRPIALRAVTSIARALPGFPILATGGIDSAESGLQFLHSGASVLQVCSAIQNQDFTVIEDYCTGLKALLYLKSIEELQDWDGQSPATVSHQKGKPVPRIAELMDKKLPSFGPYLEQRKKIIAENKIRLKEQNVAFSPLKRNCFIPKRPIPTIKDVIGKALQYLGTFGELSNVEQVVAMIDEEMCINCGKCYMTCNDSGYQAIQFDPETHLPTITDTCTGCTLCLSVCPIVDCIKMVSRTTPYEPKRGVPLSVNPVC

[3] = humans

| patients in whom hand-foot syndrome occurred [1] [%] | patients with the most severe form (grade 3) of hand-foot syndrome [1] [%] | share of the injected dose deactivated by DPD [2] | oral absorption [3] | Compound |
| --- | --- | --- | --- | --- |
| 6 | 1 | – | – | 5-FU/leucovorin |
| – | – | more than 85% | – | O=c1[nH]cc(F)c(=O)[nH]1 [5-FU, 5-fluorouracil] |
| 53 | 17 | – | rapidly and almost completely absorbed | CCCCCOC(=O)Nc1nc(=O)n([C@@H]2O[C@H](C)[C@@H](O)[C@H]2O)cc1F [capecitabine, N^4-pentyloxycarbonyl-5′-deoxy-5-fuorocytidine] |
